Drawing on US12686689B2, “HPK1 inhibitor, preparation method therefor and use thereof” (WIGEN BIOMEDICINE TECHNOLOGY (SHANGHAI) CO., LTD., priority 2020, dated 2026), this text covers IC50 for eight compounds.

The target of assay [1] is HPK1 (Homo sapiens, UniProt Q92918). The assay can be described thus: Inhibitory effect against enzyme activity of HPK1 (lantha Screen, PKC substrate). In kind it is biochemical. The following applies: class symbols defined as IC50 ranges, read-out: Inhibition rate (%). As for the experimental part: Example 130: Assay of Inhibitory Effect of Compound Against Enzyme Activity of HPK1
The inhibitory effect of the compound against the enzyme activity of HPK1 was determined by using a lantha Screen method with PKC as a substrate. The process comprises the following specific steps: the HPK1 protein was incubated with the serially-diluted compound at 28° C. for 10 min followed by addition of fluoroescein-labeled PKC substrate and ATP to react for 90 min. After termination of the reaction, a Terbium-labeled antibody against phosphorylated PKC was added and incubated for 60 min. The energy transfer of Teribium and fluoroscein was monitored by detecting luminescence at 520 nm and 450 nm to quantify PKC as the level of phosphorylation of […]. Inhibition % and IC50 of the compound were calculated compared to the control group.

In assay [2] the target is T1, hERG potassium channel (Homo sapiens, UniProt Q12809).
T1 construct: expressed in transfected cells; host or cells: HEK293
The assay can be described thus: Inhibitory effect against hERG channel activity (manual patch clamp, HEK293 cells stably expressing hERG). In kind it is cell-based. The settings on record: HEK293 cell line stably expressing hERG. Here is the method: Example 131: Assay of Inhibitory Effect of Compound Against hERG Channel Activity
The HEK293 cell line stably expressed by the hERG potassium channel was adopted for detection using manual patch clamp. Firstly, the HEK293 cell line stably expressed by the hERG potassium channel was separated and laid on a cover glass before the patch clamp detection test, and the test detection was carried out after culture for 18 h. Then a capillary glass tube was drawn into a recording electrode, and the recording electrode was contacted onto the cells under an inverted microscope to form a whole-cell recording mode. After necessary compensation and recording of the membrane capacitance and series resistance, current recording was performed according to the set current stimulation protocol. After the hERG current stabilized, administration was started and the current detected in compound-free extracellular fluid for each cell served as its own control group, and multiple cells were repeatedly tested independently. The current acted for each drug concentration and the current of the blank control were standardized, then the inhibition rate corresponding to each drug concentration was calculated, and finally the half-inhibition concentration IC50 value of each compound was calculated.

T1 sequence (Q12809 whole entry): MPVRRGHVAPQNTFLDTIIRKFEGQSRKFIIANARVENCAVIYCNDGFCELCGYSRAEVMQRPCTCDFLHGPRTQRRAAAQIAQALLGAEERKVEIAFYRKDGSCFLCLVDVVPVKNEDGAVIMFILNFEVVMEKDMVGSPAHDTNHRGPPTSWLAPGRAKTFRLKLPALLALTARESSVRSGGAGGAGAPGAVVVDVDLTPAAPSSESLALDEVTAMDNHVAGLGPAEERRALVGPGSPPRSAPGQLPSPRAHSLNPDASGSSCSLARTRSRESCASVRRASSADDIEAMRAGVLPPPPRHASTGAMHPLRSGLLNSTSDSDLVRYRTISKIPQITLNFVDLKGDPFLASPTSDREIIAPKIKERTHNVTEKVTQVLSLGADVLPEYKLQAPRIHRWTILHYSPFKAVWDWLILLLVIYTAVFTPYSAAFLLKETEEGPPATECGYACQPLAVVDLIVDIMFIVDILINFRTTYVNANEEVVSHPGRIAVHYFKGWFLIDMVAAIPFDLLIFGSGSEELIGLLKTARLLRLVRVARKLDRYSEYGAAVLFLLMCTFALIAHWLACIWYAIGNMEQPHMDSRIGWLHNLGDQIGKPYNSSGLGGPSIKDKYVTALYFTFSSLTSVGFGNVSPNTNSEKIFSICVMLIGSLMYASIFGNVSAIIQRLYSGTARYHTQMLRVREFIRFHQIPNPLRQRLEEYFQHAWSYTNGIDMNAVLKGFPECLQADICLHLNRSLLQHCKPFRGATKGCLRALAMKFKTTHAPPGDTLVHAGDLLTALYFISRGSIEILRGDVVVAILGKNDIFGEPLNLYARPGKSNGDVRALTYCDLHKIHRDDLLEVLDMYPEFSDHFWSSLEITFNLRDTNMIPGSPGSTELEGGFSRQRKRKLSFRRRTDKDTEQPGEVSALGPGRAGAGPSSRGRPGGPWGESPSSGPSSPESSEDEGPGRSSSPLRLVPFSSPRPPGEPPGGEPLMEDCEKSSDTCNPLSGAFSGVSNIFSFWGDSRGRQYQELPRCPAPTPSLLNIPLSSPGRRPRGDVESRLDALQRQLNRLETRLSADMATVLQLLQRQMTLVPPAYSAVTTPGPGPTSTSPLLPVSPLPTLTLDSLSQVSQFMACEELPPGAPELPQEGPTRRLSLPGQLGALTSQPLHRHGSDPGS
HPK1, sequence (Q92918 whole entry): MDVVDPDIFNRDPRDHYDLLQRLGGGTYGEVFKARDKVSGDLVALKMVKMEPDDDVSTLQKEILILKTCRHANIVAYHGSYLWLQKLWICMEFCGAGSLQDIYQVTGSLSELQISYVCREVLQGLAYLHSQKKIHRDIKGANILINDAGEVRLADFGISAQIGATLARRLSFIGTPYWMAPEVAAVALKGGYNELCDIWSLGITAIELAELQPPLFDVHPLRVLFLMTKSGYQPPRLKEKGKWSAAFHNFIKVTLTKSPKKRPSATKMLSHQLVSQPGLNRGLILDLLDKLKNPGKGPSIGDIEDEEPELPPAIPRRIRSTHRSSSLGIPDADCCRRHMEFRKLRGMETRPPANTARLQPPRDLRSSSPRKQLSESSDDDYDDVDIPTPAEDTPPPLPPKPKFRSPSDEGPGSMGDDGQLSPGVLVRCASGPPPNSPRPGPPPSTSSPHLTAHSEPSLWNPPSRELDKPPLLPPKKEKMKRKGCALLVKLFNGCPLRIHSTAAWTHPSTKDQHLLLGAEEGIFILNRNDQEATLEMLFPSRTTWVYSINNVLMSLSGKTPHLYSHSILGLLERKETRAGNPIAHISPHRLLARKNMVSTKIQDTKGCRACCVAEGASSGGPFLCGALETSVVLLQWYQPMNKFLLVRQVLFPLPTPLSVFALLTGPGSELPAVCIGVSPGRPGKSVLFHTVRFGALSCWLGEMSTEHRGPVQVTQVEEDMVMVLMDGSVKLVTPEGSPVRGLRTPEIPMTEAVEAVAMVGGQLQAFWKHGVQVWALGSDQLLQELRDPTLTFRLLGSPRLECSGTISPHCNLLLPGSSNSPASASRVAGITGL

Consider `COc1cccc(F)c1-c1cc2c(-c3ccc4c(c3)OCC3CN(C)CCN43)n[nH]c2cc1C#N` (stereo not shown) [Compound 6], for which the IC50 in assay [1] was not above 0.01 µM; in assay [2], 17.8 µM.
`COc1ccc(F)c(F)c1-c1cc2c(-c3ccc4c(c3)OCC3CN(C)CCN43)n[nH]c2cc1C#N` (stereo not shown) [Compound 16]: the IC50 in assay [1] was not above 0.01 µM; in assay [2], 23.6 µM.
For the compound `CNCc1cc(F)c(-c2cc3c(-c4ccc5c(c4)OCC4CN(C)CCN54)n[nH]c3cc2C#N)c(F)c1` (stereo not shown) [Compound 18], the IC50 in assay [1] is not above 0.01 µM; in assay [2], 11.8 µM.
In the same order, the values of `CN1CCN2c3ccc(-c4n[nH]c5cc(C#N)c(-c6c(F)cc(C(=O)N7CC(N(C)C)C7)cc6F)cc45)cc3OCC2C1` (stereo not shown) [Compound 35] are not above 0.01 µM and 31.8 µM.
Consider `Cc1ccncc1-c1cc2c(-c3ccc4c(c3)OCC3CN(C)CCN43)n[nH]c2cc1C#N` (stereo not shown) [Compound 43], for which the IC50 in assay [1] was not above 0.01 µM; in assay [2], 17.4 µM.
For `CN1CCN2c3ccc(-c4n[nH]c5cnc(-c6cccc(F)c6F)cc45)cc3OCC2C1` (stereo not shown) [Compound 67], in that order: 0.01 to 0.1 µM and 51.2 µM.
Regarding `COc1ccc(F)c(F)c1-c1cc2c(-c3ccc4c(c3)OCC3CN(C)CCN43)n[nH]c2cn1` (stereo not shown) [Compound 73], the IC50 in assay [1] is 0.01 to 0.1 µM; in assay [2], 41.2 µM.
As to `CN1CCN2c3ccc(-c4cnc5[nH]cc(-c6ccc(C(=O)N7CC(N(C)C)C7)cc6)c5n4)cc3OCC2C1` (stereo not shown) [Compound 112], the results for the IC50 in assay [1] and in assay [2] were not above 0.01 µM and 35.6 µM, respectively.
